What was measured:
Conditions in all cases: exposure window: 6 hpf to 120 hpf, static, assay age: 120 hpf (5 dpf)
[1] = system: Danio rerio larvae (Tropical 5D); experiment: mean distance moved of exposed larvae, dark phase (µm per frame (1/25 s)); higher = more movement
Procedure: (§1)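 Larval photomotor response in Tropical 5D wild-type zebrafish. Larvae were statically exposed to each chemical from 6 hpf to 5 dpf in 96-well plates; morphologically abnormal larvae were excluded. At 120 hpf, larvae were tracked with Ethovision XT (25 frames/s) over the 2nd cycle of 3 min light and 3 min dark. Values are the mean movement metric of exposed larvae per phase; same-plate control means (plate-dependent baseline) are given as conditions.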

[2] = system: Danio rerio larvae (Tropical 5D); experiment: mean distance moved of exposed larvae, light phase (µm per frame (1/25 s)); higher = more movement
Procedure: as §1

[3] = system: Danio rerio larvae (Tropical 5D); experiment: mean angular velocity of exposed larvae, dark phase (angular velocity (unit not stated)); higher = more movement
Procedure: as §1

[4] = system: Danio rerio larvae (Tropical 5D); experiment: mean angular velocity of exposed larvae, light phase (angular velocity (unit not stated)); higher = more movement
Procedure: as §1

## O=S(=O)(O)CCC(F)(F)C(F)(F)C(F)(F)C(F)(F)F [Sodium 1H,1H,2H,2H-perfluorohexane sulfonate(4:2)]
[1]; 0.25 µM
  mean distance moved of exposed larvae: 44.7
[2]; 0.25 µM
  mean distance moved of exposed larvae: 4.72
[3]; 0.25 µM
  mean angular velocity of exposed larvae: 1.24
[4]; 0.25 µM
  mean angular velocity of exposed larvae: 0.152

## O=S(=O)(O)C(F)(F)C(F)(F)C(F)(F)C(F)(F)C(F)(F)C(F)(F)F [Perfluorohexanesulfonic acid]
[1]; 0.015 µM
  mean distance moved of exposed larvae: 11.6
[1]; 0.046 µM
  mean distance moved of exposed larvae: 20.4
[1]; 0.14 µM
  mean distance moved of exposed larvae: 13.8
[1]; 0.41 µM
  mean distance moved of exposed larvae: 17.2
[1]; 1.23 µM
  mean distance moved of exposed larvae: 23
[1]; 3.7 µM
  mean distance moved of exposed larvae: 22.9
[1]; 11.1 µM
  mean distance moved of exposed larvae: 25.2
[1]; 33.3 µM
  mean distance moved of exposed larvae: 8.39
[1]; 66.5 µM
  mean distance moved of exposed larvae: 3.78
[1]; 100 µM
  mean distance moved of exposed larvae: 3.15
[2]; 0.015 µM
  mean distance moved of exposed larvae: 2.17
[2]; 0.046 µM
  mean distance moved of exposed larvae: 2.46
[2]; 0.14 µM
  mean distance moved of exposed larvae: 1.98
[2]; 0.41 µM
  mean distance moved of exposed larvae: 2.2
[2]; 1.23 µM
  mean distance moved of exposed larvae: 3.86
[2]; 3.7 µM
  mean distance moved of exposed larvae: 3.31
[2]; 11.1 µM
  mean distance moved of exposed larvae: 4.59
[2]; 33.3 µM
  mean distance moved of exposed larvae: 8.09
[2]; 66.5 µM
  mean distance moved of exposed larvae: 3.27
[2]; 100 µM
  mean distance moved of exposed larvae: 3.18
[3]; 0.015 µM
  mean angular velocity of exposed larvae: 0.475
[3]; 0.046 µM
  mean angular velocity of exposed larvae: 0.762
[3]; 0.14 µM
  mean angular velocity of exposed larvae: 0.609
[3]; 0.41 µM
  mean angular velocity of exposed larvae: 0.788
[3]; 1.23 µM
  mean angular velocity of exposed larvae: 0.884
[3]; 3.7 µM
  mean angular velocity of exposed larvae: 0.738
[3]; 11.1 µM
  mean angular velocity of exposed larvae: 0.954
[3]; 33.3 µM
  mean angular velocity of exposed larvae: 0.358
[3]; 66.5 µM
  mean angular velocity of exposed larvae: 0.271
[3]; 100 µM
  mean angular velocity of exposed larvae: 0.173
[4]; 0.015 µM
  mean angular velocity of exposed larvae: 0.178
[4]; 0.046 µM
  mean angular velocity of exposed larvae: 0.0902
[4]; 0.14 µM
  mean angular velocity of exposed larvae: 0.121
[4]; 0.41 µM
  mean angular velocity of exposed larvae: 0.123
[4]; 1.23 µM
  mean angular velocity of exposed larvae: 0.25
[4]; 3.7 µM
  mean angular velocity of exposed larvae: 0.171
[4]; 11.1 µM
  mean angular velocity of exposed larvae: 0.153
[4]; 33.3 µM
  mean angular velocity of exposed larvae: 0.351
[4]; 66.5 µM
  mean angular velocity of exposed larvae: 0.241
[4]; 100 µM
  mean angular velocity of exposed larvae: 0.114

## CCN(CC(=O)O)S(=O)(=O)C(F)(F)C(F)(F)C(F)(F)C(F)(F)C(F)(F)C(F)(F)C(F)(F)C(F)(F)F [N-ethylperfluoro-1-octanesulfonamidoacetic acid]
[1]; 0.25 µM
  mean distance moved of exposed larvae: 8.83
[2]; 0.25 µM
  mean distance moved of exposed larvae: 1.44
[3]; 0.25 µM
  mean angular velocity of exposed larvae: 0.335
[4]; 0.25 µM
  mean angular velocity of exposed larvae: 0.0592

## O=P(O)(O)C(F)(F)C(F)(F)C(F)(F)C(F)(F)C(F)(F)C(F)(F)C(F)(F)C(F)(F)C(F)(F)C(F)(F)F [Perfluorodecylphosphonic acid]
[1]; 0.25 µM
  mean distance moved of exposed larvae: 9.21
[2]; 0.25 µM
  mean distance moved of exposed larvae: 1.45
[3]; 0.25 µM
  mean angular velocity of exposed larvae: 0.34
[4]; 0.25 µM
  mean angular velocity of exposed larvae: 0.0471

## O=P(O)(O)C(F)(F)C(F)(F)C(F)(F)C(F)(F)C(F)(F)C(F)(F)F [Perfluorohexylphosphonic acid]
[1]; 0.25 µM
  mean distance moved of exposed larvae: 24.1
[2]; 0.25 µM
  mean distance moved of exposed larvae: 5.18
[3]; 0.25 µM
  mean angular velocity of exposed larvae: 0.788
[4]; 0.25 µM
  mean angular velocity of exposed larvae: 0.148

## O=C(O)C(F)(F)C(F)(F)C(F)(F)C(F)(F)C(F)(F)C(F)(F)C(F)(F)C(F)(F)C(F)(F)C(F)(F)C(F)(F)C(F)(F)C(F)(F)C(F)(F)C(F)(F)F [Perfluoro-n-hexadecanoic acid]
[1]; 0.25 µM
  mean distance moved of exposed larvae: 27.2
[2]; 0.25 µM
  mean distance moved of exposed larvae: 6.65
[3]; 0.25 µM
  mean angular velocity of exposed larvae: 0.833
[4]; 0.25 µM
  mean angular velocity of exposed larvae: 0.178

— the supplement of paper PMC11414989
